Entries after “also recorded” stand apart in the source; their conditions may differ. Where two headings read alike, the source gives them in different places.
Tests used:
[1] = system: dengue virus type 2 (DENV2); conditions: read-out: IC50, dengue virus type 2; cited from earlier work
PV RdRP (3D^pol) [2] = biological target: T1, PV RdRP (3D^pol) (Poliovirus type 1, UniProt P03300); assay type: biochemical
PV RdRP [3] = biological target: T2, PV RdRP (Poliovirus type 1, UniProt P03300); assay type: biochemical
PV RdRP (3D^pol) [4] = biological target: T1, PV RdRP (3D^pol); assay type: biochemical; remark: listed apart in the source
PV RdRP [5] = biological target: T2, PV RdRP; conditions: cited from earlier work
DENV2 replicon = assay type: cell-based, dengue virus type 2
poliovirus (PV) [6] = system: poliovirus (PV)
in vitro = conditions: human
poliovirus (PV) [7] = assay: in vitro; conditions: human
hepatitis C virus (HCV) = conditions: read-out: IC50, replication of hepatitis C virus; cited from earlier work

T1 sequence (P03300 1749-2209 limits assumed): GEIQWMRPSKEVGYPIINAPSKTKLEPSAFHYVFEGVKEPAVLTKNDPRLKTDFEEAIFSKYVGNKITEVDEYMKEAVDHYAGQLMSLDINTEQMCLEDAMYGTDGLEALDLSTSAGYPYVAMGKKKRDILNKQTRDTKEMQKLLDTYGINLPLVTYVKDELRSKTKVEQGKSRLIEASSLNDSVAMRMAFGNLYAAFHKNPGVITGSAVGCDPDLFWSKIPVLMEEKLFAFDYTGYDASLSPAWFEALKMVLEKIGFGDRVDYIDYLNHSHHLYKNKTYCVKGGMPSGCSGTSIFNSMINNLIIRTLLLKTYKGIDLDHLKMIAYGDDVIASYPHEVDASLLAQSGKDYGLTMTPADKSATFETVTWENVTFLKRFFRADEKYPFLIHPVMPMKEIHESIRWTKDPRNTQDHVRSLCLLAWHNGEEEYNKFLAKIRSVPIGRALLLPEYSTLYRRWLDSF
T2 sequence (P03300 1749-2209 limits assumed): as above

In the case of `C#C[C@@]1(O)[C@H](O)[C@@H](CO)O[C@H]1n1ccc2c(N)ncnc21` [NITD008, 7-deaza-2'-C-ethynyladenosine], the IC50 [1] is listed as 0.64 µM.

With `Cc1ncnc2c1ncn2[C@@H]1O[C@H](COP(=O)(O)OP(=O)(O)OP(=O)(O)O)[C@@H](O)[C@H]1O` [Compound 8, 6-methyl-9-β-D-ribofuranosylpurine 5'-triphosphate] the “Incorporation efficiency across from uracil” value (PV RdRP (3D^pol) [2]) was “comparable to natural ATP”, the “Incorporation opposite adenine and guanine” value (PV RdRP (3D^pol) [2]) was “almost no incorporation” and the “RNA chain termination (extension of RNA oligomers to +4)” value (PV RdRP (3D^pol) [2]) was “neither of these compounds functions as a RNA chain terminator”. The “Efficiency kpol/Kd,app” value (PV RdRP [3]) was 60000 M⁻¹ s⁻¹, the “Efficiency relative to natural ATP” value (PV RdRP [3]) was “only ten-fold lower than natural ATP” and the “Incorporation opposite C by PV RdRP, rate” value (PV RdRP [3]) was “extremely slow”. The “Substrate of PV RdRP” value (PV RdRP [3]) was “robust substrates”, the kpol (PV RdRP [3]) was 11 ± 0.3 s⁻¹ and the “Inhibition of PV RdRP” value (PV RdRP (3D^pol) [4]) was “neither 8 nor 9 inhibit PV RdRP”. The “kcat compared with natural correct nucleotides” value (PV RdRP (3D^pol) [4]) was “increases in kcat”.

For `NC(=O)c1ncn([C@@H]2O[C@H](COP(=O)(O)OP(=O)(O)OP(=O)(O)O)[C@@H](O)[C@H]2O)n1` [RTP, ribavirin triphosphate], the “Efficiency relative to 8 or 9” value (PV RdRP [3]) is given as “approximately three orders magnitude lower”, the “Efficiency kpol/Kd,app” value (PV RdRP [5]) is given as 30 M⁻¹ s⁻¹ and the kpol (PV RdRP [5]) is given as 0.014 ± 0.001 s⁻¹.

With `Cc1nccc2c1ncn2[C@@H]1O[C@H](CO)[C@@H](O)[C@H]1O` [Compound 5, 3-deaza-6-methyl-9-β-D-ribofuranosylpurine] the “Inhibition of DENV2 replicon activity” value (DENV2 replicon) was “essentially no inhibition”, the “Cytotoxicity” value (HeLa S3 cells) was “essentially no cytotoxicity” and the “Activity against PV” value (poliovirus (PV) [6]) was “inactive”. For the same compound, the “Antiviral activity in plaque assays of infectivity” value (poliovirus (PV) [6]) was “essentially inactive”.

In the case of `Nc1ncnc2c1ncn2[C@@H]1O[C@H](COP(=O)(O)OP(=O)(O)OP(=O)(O)O)[C@@H](O)[C@H]1O` [ATP, adenosine triphosphate], the “Efficiency kpol/Kd,app” value (PV RdRP [5]) is given as 650000 M⁻¹ s⁻¹ and the kpol (PV RdRP [5]) is given as 87 ± 4 s⁻¹.

With `Cc1ncnc2c1ccn2[C@@H]1O[C@H](CO)[C@@H](O)[C@H]1O` [Compound 6, 4-Methyl-7-β-D-ribofuranosylpyrrolo[2,3-d]pyrimidine] the viability at 100 µM (in vitro) was 33% and the selectivity ratio (poliovirus (PV) [7]) was over 100.

For `COC[C@H]1O[C@@H](n2ccc3c(C)ncnc32)[C@H](O)[C@@H]1O` [Compound 7, 4-Methyl-7-(5'-O-methyl-β-D-ribofuranosyl)pyrrolo[2,3-d]pyrimidine], the “Inhibition of DENV2 replicon activity” value (DENV2 replicon) was “essentially no inhibition”, the “Cytotoxic effects to HeLa cells after 7 h” value (“Cytotoxic effects” below) (HeLa S3 cells) was “little cytotoxicity” and the “Cytotoxicity” value (HeLa S3 cells) was “essentially no cytotoxicity”. For the same compound, the “Antiviral activity in plaque assays of infectivity” value (poliovirus (PV) [6]) was “eliminated the antiviral effect” and the “Reduction of biological activity on methylation of the 5'-alcohol of 6” value (poliovirus (PV) [6]) was “over 1000 fold”.

For `C[C@@]1(O)[C@H](O)[C@@H](CO)O[C@H]1n1ccc2c(N)ncnc21` [7-deaza-2'-C-methyladenosine], the IC50 (hepatitis C virus (HCV)) is given as 0.108 µM.

For `Nc1ncnc2c1ccn2[C@@H]1O[C@H](CO)[C@@H](O)[C@H]1O` [Compound 3, tubercidin, reference compound], the “Cytotoxic effects” value (HeLa S3 cells) was “pronounced effects”.

For `Cc1ccnc2c1ncn2[C@@H]1O[C@H](CO)[C@@H](O)[C@H]1O` [Compound 4, 7-Methyl-3-β-D-ribofuranosyl-3H-imidazo[4,5-b]pyridine], the “Inhibition of DENV2 replicon activity” value (DENV2 replicon) was “essentially no inhibition”, the “Cytotoxic effects” value (HeLa S3 cells) was “little cytotoxicity” and the “Cytotoxicity” value (HeLa S3 cells) was “essentially no cytotoxicity”. The “Activity against PV” value (poliovirus (PV) [6]) was “inactive”.

For `Cc1ncnc2c1ccn2[C@@H]1O[C@H](COP(=O)(O)OP(=O)(O)OP(=O)(O)O)[C@@H](O)[C@H]1O` [Compound 9, 4-Methyl-7-β-D-ribofuranosylpyrrolo[2,3-d]pyrimidine 5'-triphosphate], the “Incorporation efficiency across from uracil” value (PV RdRP (3D^pol) [2]) was “comparable to natural ATP”, the “Incorporation opposite adenine and guanine” value (PV RdRP (3D^pol) [2]) was “almost no incorporation” and the “RNA chain termination (extension of RNA oligomers to +4)” value (PV RdRP (3D^pol) [2]) was “neither of these compounds functions as a RNA chain terminator”. The “Efficiency kpol/Kd,app” value (PV RdRP [3]) was 50000 M⁻¹ s⁻¹, the “Efficiency relative to natural ATP” value (PV RdRP [3]) was “only ten-fold lower than natural ATP” and the “Incorporation opposite C by PV RdRP, rate” value (PV RdRP [3]) was “extremely slow”. For the same compound, the “Substrate of PV RdRP” value (PV RdRP [3]) was “robust substrates; also recorded: efficient substrate”, the kpol (PV RdRP [3]) was 6 ± 0.5 s⁻¹ and the “Inhibition of PV RdRP” value (PV RdRP (3D^pol) [4]) was “neither 8 nor 9 inhibit PV RdRP”. The “kcat compared with natural correct nucleotides” value (PV RdRP (3D^pol) [4]) was “increases in kcat”.

In the case of `Cc1ncnc2c1ncn2[C@@H]1O[C@H](CO)[C@@H](O)[C@H]1O` [Compound 2, 6-methyl-9-β-D-ribofuranosylpurine, reference compound], the “Cytotoxic effects” value (HeLa S3 cells) is reported as “pronounced effects” and the “Toxicity relative to 3 (fold less toxic)” value (HeLa S3 cells; human) is reported as ~ 5 fold.

Reference: article PMC2990348 (Journal of medicinal chemistry, 2010)
